This is an account of results in patent US9487470B2, “4-((substituted phenyl) difluoromethyl) phenoxy carboxylic acid derivative, and preparation method and uses thereof” (Zhejiang Hisun Pharmaceutical Co., Ltd., priority 2012, dated 2016).

The subject of data set [1] is hyperlipoidemia model of Goldenhamsters (blood plasma TC, TG, HDL-C, LDL-C). The data set can be described thus: Pharmacodynamic test group 3: effects on blood lipid levels of Goldenhamsters in a hyperlipoidemia model. The format is in vivo. As to conditions: for blood lipid-regulating effects (conclusion from table 4) / effect on HDL-C, in comparison with the results before administration (in words) / effect on LDL-C, in comparison with the results before administration (in words) / effect on TG, in comparison with the results before administration (in words) / effect on TC, in comparison with the results before administration (in words) / therapeutic effect compared with fenofibrate (conclusion from table 4): 40 mg/kg; for LDL-C, after administration / TC, after administration / TG, after administration / HDL-C, after administration: 40 mg/kg intragastric, 1 week, high-lipid feed continued, asterisks = P vs before administration; for LDL-C, after administration / TC, after administration / TG, after administration / HDL-C, before administration / LDL-C, before administration / TC, before administration / TG, before administration / HDL-C, after administration: blood plasma, x±s; for effect on HDL-C, in comparison with the results before administration (in words) / effect on LDL-C, in comparison with the results before administration (in words) / effect on TG, in comparison with the results before administration (in words) / effect on TC, in comparison with the results before administration (in words): t test after vs before administration; for HDL-C, before administration / LDL-C, before administration / TC, before administration / TG, before administration: baseline of the group before administration, high-lipid feed 2 weeks, 6 animals; for therapeutic effect compared with fenofibrate (conclusion from table 4): fenofibrate 40 mg/kg. The text has this:
Animals: 120 male Goldenhamsters, aged 8 weeks, body weight 80-100 g, provided by Vital River Laboratories, Beijing.
Kits: The kits for total cholesterol (TC), triglyceride (TG), and high density lipoprotein cholesterol (HDL-C) were provided by SYSMEX, and the kits for low density lipoprotein cholesterol (LDL-C) were provided by Shanghai Kehua Bio-engineering Co., Ltd.
Apparatus: SYSMEX Automatic Biochemistry Analyzer, Bechman centrifuge, Setoris balance.
The animals were acclimatized and fed for 1 week, ad lib, light cycle was 10 h/14 h, and then feeds with high lipid content were fed to the animals (formulation: 0.3% cholesterol, 20% palm oil, and 79.7% basic feeds). The animals were fed for 2 weeks, and were fasted at 4:00 pm of the 14th day (fasted for 16 h). At the 15th day, the animals were anaesthetized with ethyl ether, weighted, and then 0.5 ml blood was collected from vena orbitalis posterior. The blood was anticoagulated with heparin, and was centrifugated at 5000 rpm for 10 min. The blood plasma was taken, and the levels of TC, TG, HDL-C, and LDL-C in blood plasma were determined using automatic biochemistry analyzer.
During the administration, feeds with high lipid content were continuously fed to the animals. The animals were fed for 1 week, and were fasted at 4:00 pm of the 7th day. At the 8th day, the animals were anaesthetized with ethyl ether, weighted, and then 0.5 ml blood was collected from vena orbitalis posterior. The blood was anticoagulated with heparin, and was centrifugated at 5000 rpm for 10 min. The blood plasma was taken, and the levels of TC, TG, HDL-C, and LDL-C in blood plasma were determined using automatic biochemistry analyzer.
The results were represented by x±s, and t test was employed for comparing the results obtained before and after administration.

Data set [2] is described as follows: Solubility in water (remark on the test drugs). Type of data set: physicochemical. The following applies: formulated with 20% solutol.
Data set [3] deals with hyperlipoidemia model of Goldenhamsters (blood plasma TC, TG, HDL-C, LDL-C). The data set is described as follows: Pharmacological test group 1: effects on blood lipid levels of Goldenhamsters in a hyperlipoidemia model. Type of data set: in vivo. From the text: Animals: 134 male Goldenhamsters, aged 8 weeks, body weight 80-100 g, provided by Vital River Laboratories, Beijing. […] Kits: The kits for total cholesterol (TC), triglyceride (TG), and high density lipoprotein cholesterol (HDL-C) were provided by SYSMEX, and the kits for low density lipoprotein cholesterol (LDL-C) were provided by Shanghai Kehua Bio-engineering Co., Ltd. Apparatus: SYSMEX Automatic Biochemistry Analyzer, Bechman centrifuge, Setoris balance. The animals were acclimatized and fed for 1 week, ad lib, light cycle was 10 h/14 h, and then feeds with high lipid content were fed to the animals (formulation: 0.3% cholesterol, 20% palm oil, and 79.7% basic feeds). The animals were fed for 10 days, and were fasted at 4:00 pm on the 10th day (fasted for 16 h). On the 11th day, the animals were anaesthetized with ethyl ether, weighted, and then 0.5 ml blood was collected from vena orbitalis posterior. The blood was anticoagulated with heparin, and was centrifugated at 5000 rpm for 10 min. The blood plasma was taken, and the levels of TC, TG, HDL-C, and LDL-C in blood plasma were determined using automatic biochemistry analyzer. The animals were acclimatized and fed for 1 week, ad lib, light cycle was 10 h/14 h, and then feeds with high lipid content were fed to the animals (formulation: 0.3% cholesterol, 20% palm oil, and 79.7% basic feeds). The animals were fed for 2 weeks, and were fasted at 4:00 pm on the […] (fasted for 16 h). On the 22nd day, the animals were anaesthetized with ethyl ether, weighted, and then 0.5 ml blood was collected from vena orbitalis posterior. The blood was anticoagulated with heparin, and was centrifugated at 5000 rpm for 10 min. The blood plasma was taken, and the levels of TC, TG, HDL-C, and LDL-C in blood plasma were determined using automatic biochemistry analyzer. […] During the administration, feeds with high lipid content were continuously fed to the animals. The animals were fed for 1 week, and were fasted at 4:00 pm on the 7th day. On the 8th day, the animals were anaesthetized with ethyl ether, weighted, and then 0.5 ml blood was collected from vena orbitalis posterior. The blood was anticoagulated with heparin, and was centrifugated at 5000 rpm for 10 min. The blood plasma was taken, and the levels of TC, TG, HDL-C, and LDL-C in blood plasma were determined using automatic biochemistry analyzer. The results were represented by x±s, and t test was employed for comparing the results obtained before and after administration.

The mark [4] stands for this setting: 40 mg/kg intragastric, 1 week, high-lipid feed continued, blood plasma, x±s, asterisks = P vs before administration.
Setting [5] is: 40 mg/kg, t test after vs before administration.

For the compound `COC(=O)C(CCO)Oc1ccc(C(F)(F)c2ccc(Cl)cc2)cc1` (stereo not shown) [HS003-031, methyl 2-(4-((4-chlorophenyl)difluoromethyl)phenoxy)-4-hydroxy-butyrate], in data set [1], the “blood lipid-regulating effects (conclusion from table 4)” value (“blood lipid-regulating effects” for short) is “excellent blood lipid-regulating effects”; the “LDL-C, after administration” value was 1.94 ± 0.42; the “TC, after administration” value stood at 11.44 ± 1.05; the “TG, after administration” value turned out to be 1.89 ± 0.38. Further, in data set [1], the “effect on HDL-C, in comparison with the results before administration (in words)” value is “significantly increases”; the “effect on LDL-C, in comparison with the results before administration (in words)” value (“effect on LDL-C, in comparison” below) is “significantly decreases”; the “effect on TG, in comparison with the results before administration (in words)” value (“effect on TG, in comparison” below) is on record as “significantly decreases”; the “HDL-C, before administration” value was 2.82 ± 0.34. In data set [1], the “LDL-C, before administration” value turned out to be 3.2 ± 0.83; the “TC, before administration” value is given as 12.61 ± 1.66; the “TG, before administration” value came out at 4.02 ± 1.33. In data set [2], the solubility in water entry is listed as “insoluble”.
For `CC(C)OC(=O)C(C)(C)Oc1ccc(C(F)(F)c2ccccc2)cc1` [HS003-008, Isopropyl 2-(4-(phenyldifluoromethyl)phenoxy)-2-methylpropionate], in data set [1], the “blood lipid-regulating effects” value is on record as “excellent blood lipid-regulating effects”; the “HDL-C, after administration” value was 3.4 ± 0.11; the “LDL-C, after administration” value is 2.11 ± 0.89; the “TC, after administration” value is 10.84 ± 1.83. Also, in data set [1], the “TG, after administration” value stood at 2.49 ± 0.99; the “effect on HDL-C, in comparison with the results before administration (in words)” value is on record as “increase”; the “effect on LDL-C, in comparison” value is “significantly decrease”; the “effect on TC, in comparison with the results before administration (in words)” value (“effect on TC, in comparison” for short) was “significantly decrease”. Also, in data set [1], the “effect on TG, in comparison” value is “significantly decrease”; the “HDL-C, before administration” value worked out at 2.86 ± 0.14; the “LDL-C, before administration” value was determined as 3.18 ± 0.81; the “TC, before administration” value is 12.85 ± 2. In data set [1], the “TG, before administration” value was found to be 3.93 ± 1.09. Further, the “regulating effects on the levels of blood lipid (conclusion from table 2)” value in data set [3] (40 mg/kg) was “tend to the effects of significantly decreasing TG, TC, and LDL-C”. Also, in data set [3] (setting [4]), the “HDL-C, after administration” value is reported as 3.46 ± 0.26; the “LDL-C, after administration” value is listed as 1.0 ± 0.45; the “TC, after administration” value stood at 9.85 ± 1.48; the “TG, after administration” value is given as 1.22 ± 0.84. In addition, in data set [3] (setting [5]), the “effect on LDL-C, in comparison” value is listed as “significantly decreases” and the “effect on TG, in comparison” value is “significantly decreases”. Further, the solubility in water result in data set [2] is “insoluble”.
For `COC(=O)C(C)Oc1ccc(C(F)(F)c2ccc(Cl)cc2)cc1` (stereo not shown) [HS003-024, Methyl 2-(4-((4-chlorophenyl)difluoromethyl)phenoxy) propionate], in data set [1], the “blood lipid-regulating effects” value is recorded as “excellent blood lipid-regulating effects”; the “HDL-C, after administration” value turned out to be 2.94 ± 0.41; the “LDL-C, after administration” value amounted to 1.64 ± 0.27; the “TC, after administration” value worked out at 7.64 ± 0.46. Besides, in data set [1], the “TG, after administration” value is on record as 1.92 ± 0.38; the “therapeutic effect compared with fenofibrate (conclusion from table 4)” value is “outstanding therapeutic effects, and are superior to fenofibrate”; the “effect on LDL-C, in comparison” value is on record as “significantly decreases”; the “effect on TC, in comparison” value is on record as “significantly decreases”. Moreover, in data set [1], the “effect on TG, in comparison” value is “significantly decreases”; the “HDL-C, before administration” value is 2.76 ± 0.42; the “LDL-C, before administration” value was found to be 2.97 ± 0.98; the “TC, before administration” value stood at 12.47 ± 1.85. For the same compound, the “TG, before administration” value in data set [1] is 3.96 ± 1.15. Also, the solubility in water result in data set [2] is “insoluble”.
In the case of `CCOC(=O)C(CC)Oc1ccc(C(F)(F)c2ccc(Cl)cc2)cc1` (stereo not shown) [HS003-023, Ethyl 2-(4-((4-chlorophenyl)difluoromethyl)phenoxy)butyrate], in data set [1], the “blood lipid-regulating effects” value is on record as “excellent blood lipid-regulating effects”; the “HDL-C, after administration” value is 2.88 ± 0.22; the “LDL-C, after administration” value came out at 2.26 ± 0.38; the “TC, after administration” value is recorded as 8.49 ± 1.08. Besides, in data set [1], the “TG, after administration” value amounted to 2.40 ± 0.35; the “therapeutic effect compared with fenofibrate (conclusion from table 4)” value was “outstanding therapeutic effects, and are superior to fenofibrate”; the “effect on LDL-C, in comparison” value is on record as “significantly decreases”; the “effect on TC, in comparison” value is “significantly decreases”. In data set [1], the “effect on TG, in comparison” value is recorded as “significantly decreases”; the “HDL-C, before administration” value is on record as 2.76 ± 0.28; the “LDL-C, before administration” value is reported as 2.86 ± 0.63; the “TC, before administration” value is given as 12.39 ± 2.38. In data set [1], the “TG, before administration” value was 3.91 ± 1.07. Besides, the solubility in water result in data set [2] was “insoluble”.
